Patent publication US20220062317A1, “NA+/K+ ATPASE INHIBITORS FOR USE IN THE PREVENTION OR TREATMENT OF METASTASIS” (UNIVERSITÄT BASEL, priority 2018, published 2022)
Entries after “also recorded” stand apart in the source; their conditions may differ. Counter-ions that a name gives are not always drawn.

Columns and labels:
[1] = tested on: BR16 CTC-derived cells; experiment: FDA-approved compound screen for CTC cluster dissociation (high content imaging); type: cell-based, human; details: even at lowest concentration tested (0.1 μM), 2 days, hypoxia
Protocol: In order to identify actionable vulnerabilities of CTC clusters, and to test whether the epigenetic and transcriptional features of clustered CTCs are reversible upon cluster dissociation into single cells the following steps were undertaken. First, the expression of all known cell-cell junction (CCJ) components in patient samples obtained from normal breast (TGCA REF), breast cancer (TOGA REF), single CTCs and CTC clusters were assessed (Aceto et al. Cell 2014). While breast cancer cells tend to only partially reduce their CCJ repertoire compared to normal breast cells, CTCs express only a small fraction of CCJ components, likely as a consequence to their increased motility. Yet, CTC clusters retain a higher number of CCJs as compared to single CTCs. […] To this end, 2′486 FDA-approved compounds were evaluated for their ability to dissociate clusters of human breast CTC-derived cells. Cluster dissociation was assessed using a high content screening microscope and comparing cells treated with each individual compound to steady state clustered BR16 cells and 40 μm-filtered BR16 single cell suspension as negative and positive controls, respectively (FIG. 4a). […] For the majority of the 2′486 FDA-approved compounds, when using a 5 μM concentration for 2 days in hypoxic conditions, no detectable reduction in cell viability (>70% viability) nor mean cluster size (>450 μm2) in BR16 CTC-derived cells was observed. […] These compounds include inhibitors of Na^+/K^+ ATPases (n=6), HDACs (n=2), nucleotide biosynthesis (n=5), kinases (n=4), GPCRs (n=2), cholesterol biosynthesis (n=1), nuclear export (n=1), tubulin (n=9), as well as DNA binding compounds (n=8) and antibiotics (n=1).
A library containing 2,486 FDA-approved compounds was purchased from the Nexus Platform ETH Zurich. Each compound was resuspended using CTC medium at a 15 μM concentration and 20 μl were aliquoted in duplicate in a total of 64 Flat Bottom Clear Ultra Low attachment 96-well plates (Corning, Cat #3474).
To reduce cluster size in CTC derived cell lines, a 40 μm cell strainer was used (Corning, Cat #431750). […] Plates were incubated in hypoxia (5% oxygen) for 2 days and then 20 μl were transferred into a 96 well Black/clear Tissue culture treated plate (BD Falcon, Cat #353219) containing 40 μl of D-PBS (Invitrogen, Cat #14190169) and stained for 1 hr at 37° C. with a final concentration of 4 μM Hoechst 34580 (Invitrogen, Cat #H21486), 2 μM TMRM (Invitrogen, Cat #T668) and 4 μM TOTO-3 (Invitrogen, Cat #T3604). For each plate, two positive controls (non-treated cells) and two negative controls (non-treated and […] cells) were included. Z-factors were calculated per individual plate using the following formula: Z′=1−3(σs+σc)/|μs−μc|^3 (σ: standard deviation, μ: mean, s: positive control and c: negative control) (Martin et al., PLoS One 9, e88338, 2014) and ranged between 0.62-0.937. Plates were scanned using Operetta High Content Imaging System (Perkin Elmer) and cluster analysis was performed using Harmony High Content Imaging and Analysis Software (Perkin Elmer).

[2] = tested on: BRx50 human CTC-derived cells; experiment: as above; type: cell-based; details: even at lowest concentration tested (0.1 μM)
[3] = tested on: BR16 xenografts; experiment: BR16 xenograft (mammary fat pad), spontaneous CTC clusters and metastasis; type: in vivo, NSG mice; details: digoxin 2 mg/kg vs vehicle
Protocol: Blood specimens for CTC analysis were obtained from University Hospital Basel after informed patient consent according to protocol EKNZ BASEC 2016-00067 and EK 321/10, which received ethical approval from the Swiss authorities (EKNZ, Ethics Committee northwest/central Switzerland). An average of 7.5 ml of blood per patient was drawn in EDTA vacutainers. Within 1 hr from blood draw, the blood was processed through Parsortix GEN3D6.5 Cell Separation Cassette (Angle Europe). For mouse studies, blood was retrieved via cardiac puncture and 1 ml of blood was similarly processed through a Parsortix device. Captured CTCs were further stained on Parsortix cassette with EpCAM-AF488 conjugated (CellSignaling, Cat #CST5198), HER2-AF488 (#324410, BioLegend), EGFR-FITC conjugated (GeneTex, Cat #GTX11400) and CD45-BV605 conjugated (Biolegend, Cat #304042 (anti-human); Cat #103140 (anti-mouse)) antibodies. For all other models (xenografts), carrying cancer cells stably expressing a GFP-Luciferase reporter, only anti-CD45 staining was performed, while CTCs were identified based on GFP expression. The number of captured CTCs, including single CTCs, CTC clusters and CTC-WBC clusters, was determined while cells were still in the cassette. CTCs were then released from the cassette in DPBS (#14190169, Gibco) onto ultra-low attachment plates (#3471-COR, Corning). Representative pictures were taken at 40× magnification with Leica DM14000 fluorescent microscope using Leica LAS and analyzed with ImageJ.
For tail vein experiments, NOD SCID Gamma (NSG) mice (Jackson Labs) were injected with 1×10^6 BR16-mCherry cells resuspended in 100 μl D-PBS and monitored with IVIS Lumina II (Perkin Elmer). For CTC xenograft mouse model isolation, 1×10^6 LM2-GFP, 1×10^6 BRx50-GFP or 1×10^6 BR16-GFP cells were resuspended in 100 μl of 50% Cultrex PathClear Reduced Growth Factor Basement Membrane Extract (R&D Biosystems, Cat #3533-010-02) in D-PBS and injected orthotopically in NSG mice. Blood draw was performed 4-5 weeks after tumor onset for LM2 cells, 5-6 months after tumor onset for BR16 and 6-7 months after tumor onset for BRx50 cells.

[4] = tested on: LM2 xenografts; experiment: LM2 xenograft, spontaneous CTC clusters and metastasis; type: in vivo, NSG mice; details: LM2 xenograft, digoxin 2 mg/kg vs vehicle

SMILES: COc1cc2c(c(OC)c1OC)-c1ccc(OC)c(=O)cc1[C@@H](NC(C)=O)CC2 [colchicine]
- mean cluster size [1]: significant decrease in mean cluster size
- mean cluster size [2]: significant decrease in mean cluster size

SMILES: C[C@H]1O[C@@H](O[C@H]2[C@@H](O)C[C@H](O[C@H]3[C@@H](O)C[C@H](O[C@H]4CC[C@@]5(C)[C@H](CC[C@@H]6[C@@H]5C[C@@H](O)[C@]5(C)[C@@H](C7=CC(=O)OC7)CC[C@]65O)C4)O[C@@H]3C)O[C@@H]2C)C[C@H](O)[C@@H]1O [digoxin, Digoxin]
- metastasis (metastatic index) [3]: suppresses metastasis
- number of CTC clusters [3]: clear decrease
- number of CTC-neutrophil clusters [3]: clear decrease
- tumor size / tumor growth rate over time [3]: No significant differences are observed; also recorded: no significant difference
- formation of CTC clusters (CTC fold change) [4]: reduced the formation
- formation of CTC-neutrophil clusters (CTC fold change) [4]: reduced the formation
- overall survival [4]: prolonged overall survival
- tumor size / tumor growth rate over time [4]: No significant differences are observed; also recorded: no significant difference
- overall survival ([4]; listed as Digoxin): prolongs overall survival

SMILES: COc1cc([C@@H]2c3cc4c(cc3[C@H](O)[C@H]3COC(=O)[C@H]23)OCO4)cc(OC)c1OC [podofilox]
- mean cluster size [1]: significant decrease in mean cluster size
- mean cluster size [2]: significant decrease in mean cluster size

SMILES: COc1cc(OC)c(/C=C/S(=O)(=O)Cc2ccc(OC)c(NCC(=O)O)c2)c(OC)c1 [rigosertib]
- mean cluster size [1]: significant decrease in mean cluster size
- mean cluster size [2]: significant decrease in mean cluster size

SMILES: CC[C@]1(O)C[C@H]2CN(CCc3c([nH]c4ccccc34)[C@@](C(=O)OC)(c3cc4c(cc3OC)N(C=O)[C@H]3[C@@](O)(C(=O)OC)[C@H](OC(C)=O)[C@]5(CC)C=CCN6CC[C@]43[C@@H]65)C2)C1 [vincristine sulfate]
- mean cluster size [1]: significant decrease in mean cluster size
- mean cluster size [2]: significant decrease in mean cluster size
